According to US6472418B1, “Non-peptide NK1 receptors antagonists” (Warner-Lambert Company, priority 1998, dated 2002):

Target: T1, Human NK1 Receptor (Homo sapiens, UniProt P25103)
T1 construct: endogenous in cells; host or cells: Human lymphoma IM9 cells (whole cells)
Assay: In Vitro Human NK1 Receptor Binding Assay ([125I]Bolton-Hunter substance P displacement, IM9 cells)
Conditions: Human lymphoma IM9 cells, [125I]Bolton-Hunter substance P (0.05-0.1 nM), 50 min at 21° C.; Table 1; read-out: NK1 binding IC50
Procedure: They have been evaluated in an NK1-receptor binding assay which is described below.
Human lymphoma IM9 cells were grown in RPMI 1640 culture medium supplemented with 10% fetal calf serum and 2 mM glutamine and maintained under an atmosphere of 5% CO2. Cells were passaged every 3-4 days by reseeding to a concentration of 4-8×10^6/40 ml per 175 cm^2 flask. Cells were harvested for experiments by centrifugation at 1000 g for 3 min. Pelleted cells were washed once by resuspension into assay buffer (50 mM Tris HCl pH 7.4, 3 mM MnCl2, 0.02% BSA, […] bacitracin, […] chymostatin, 2 mM phosphoramidon, […] leupeptin) and repeating the centrifugation step before resuspending at a concentration of 2.5×10^6 cells/mL assay buffer. Cells ([…]) were incubated with [^125I]Bolton-Hunter substance P (0.05-0.1 nM) in the presence and absence of varying concentrations of test compounds for 50 min at 21° C. Non-specific binding (10% of the total binding observed under these conditions) was defined by […] [Sar^9, Met(02)^11] substance P. Reactions were terminated by rapid filtration under vacuum onto GF\C filters presoaked in 0.2% PEI for 1-2 h, using a Brandel cell harvester. Filters were washed with 6×1 ml ice-cold Tris HCl (50 mM, pH 7.4) and radioactivity bound determined using a gamma couter. Results were analyzed using iterative curve fitting procedures in RS1 or Graphpad Inplot.

T1 sequence (P25103 whole entry): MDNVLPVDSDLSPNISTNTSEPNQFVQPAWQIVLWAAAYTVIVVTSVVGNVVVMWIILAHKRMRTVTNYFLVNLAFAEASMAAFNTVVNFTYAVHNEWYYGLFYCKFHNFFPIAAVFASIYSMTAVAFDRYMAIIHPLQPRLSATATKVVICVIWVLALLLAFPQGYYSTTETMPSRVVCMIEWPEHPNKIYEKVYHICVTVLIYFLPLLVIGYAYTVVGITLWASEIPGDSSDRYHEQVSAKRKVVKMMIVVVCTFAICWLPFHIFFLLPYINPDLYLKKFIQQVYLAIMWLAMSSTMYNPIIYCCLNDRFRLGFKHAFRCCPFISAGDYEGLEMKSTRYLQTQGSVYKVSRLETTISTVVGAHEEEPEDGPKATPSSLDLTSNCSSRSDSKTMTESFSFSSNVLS

First: C[C@H](NC(=O)[C@@H](Cc1c[nH]c2ccccc12)NCc1cccc(C#N)c1)c1ccccc1 (relative stereo) [Example 14, 2-(3-Cyano-benzylamino)-3-(1H-indol-3-yl)-N-(1-phenyl-ethyl)-propionamide, [R-(R*,S*)]]
Second: C[C@H](NC(=O)[C@@](C)(Cc1c[nH]c2ccccc12)NCc1ccn[nH]1)c1ccccc1 (relative stereo) [Example 21, 3-(1H-Indol-3-yl)-2-methyl-N-(1-phenyl-ethyl)-2-[(2H-pyrazol-3-ylmethyl)-amino]-propionamide, [R-(R*,S*)]]
The IC50 of the first is 390-fold lower: 4.7 nM for the first, 1810 nM for the second.

Same assay, conditions: Human lymphoma IM9 cells, [125I]Bolton-Hunter substance P; Table 3, array-synthesis products; read-out: IC50 (nM) hNK1

Going from `CN1CCCC1CCNC(=O)C(Cc1c[nH]c2ccccc12)NCc1cc2ccccc2o1` (stereo not shown) [Example 198, 2-[(Benzofuran-2-ylmethyl)-amino]-3-(1H-indol-3-yl)-N-[2-(1-methyl-pyrrolidin-2-yl)-ethyl]-propionamide] to `O=C(NCC1CCCCC1)C(Cc1c[nH]c2ccccc12)NCc1cc2ccccc2o1` (stereo not shown) [Example 226, 2-[(Benzofuran-2-ylmethyl)-amino]-N-cyclohexylmethyl-3-(1H-indol-3-yl)-propionamide], the IC50 falls from greater than 10000 nM to 54 nM.

Compared with `O=C(NC1CCc2ccccc2C1)C(Cc1c[nH]c2ccccc12)NCc1cc2ccccc2o1` (stereo not shown) [Example 253, 2-[(Benzofuran-2-ylmethyl)-amino]-3-(1H-indol-3-yl)-N-(1,2,3,4-tetrahydro-naphthalen-2-yl)-propionamide], `CC(NC(=O)C(Cc1c[nH]c2ccccc12)NCc1cc2ccccc2o1)c1ccccc1` (stereo not shown) [Example 234, 2-[(Benzofuran-2-ylmethyl)-amino]-3-(1H-indol-3-yl)-N-(1-phenyl-ethyl)-propionamide] is 44-fold lower in IC50: 3330 nM for the first, 75 nM for the second. The second is the more potent here.

`O=C(NCc1ccc2c(c1)OCO2)C(Cc1c[nH]c2ccccc12)NCc1cc2ccccc2o1` (stereo not shown) [Example 267, N-Benzo[1,3]-dioxol-5-ylmethyl-2-[(benzofuran-2-ylmethyl)-amino]-3-(1H-indol-3-yl)-propionamide] and `O=C(NCc1cccs1)C(Cc1c[nH]c2ccccc12)NCc1cc2ccccc2o1` (stereo not shown) [Example 232, 2-[(Benzofuran-2-ylmethyl)-amino]-3-(1H-indol-3-yl)-N-thiophen-2-ylmethyl-propionamide] are within 1.5-fold of each other in IC50: 55 nM for the first, 63 nM for the second.

`O=C(NCCn1cccc1)C(Cc1c[nH]c2ccccc12)NCc1cc2ccccc2o1` (stereo not shown) [Example 212, 2-[(Benzofuran-2-ylmethyl)-amino]-3-(1H-indol-3-yl)-N-(2-pyrrol-1-yl-ethyl)-propionamide] and `O=C(NCc1cccnc1)C(Cc1c[nH]c2ccccc12)NCc1cc2ccccc2o1` (stereo not shown) [Example 231, 2-[(Benzofuran-2-ylmethyl)-amino]-3-(1H-indol-3-yl)-N-pyridin-3-ylmethyl-propionamide] are within 1.5-fold of each other in IC50: 658 nM for the first, 790 nM for the second.

Going from `COC(=O)C(NC(=O)C(Cc1c[nH]c2ccccc12)NCc1cc2ccccc2o1)c1ccccc1` (stereo not shown) [Example 304, [2-[(Benzofuran-2-ylmethyl)-amino]-3-(1H-indol-3-yl)-propionylamino]-phenyl-acetic acid methyl ester] to `CC(CCc1ccccc1)NC(=O)C(Cc1c[nH]c2ccccc12)NCc1cc2ccccc2o1` (stereo not shown) [Example 307, 2-[(Benzofuran-2-ylmethyl)-amino]-3-(1H-indol-3-yl)-N-(1-methyl-3-phenyl-propyl)-propionamide], the IC50 rises from 43 nM to 392 nM (9.1-fold). The first is the more potent here.

`O=C(NCc1cc(C(F)(F)F)cc(C(F)(F)F)c1)C(Cc1c[nH]c2ccccc12)NCc1cc2ccccc2o1` (stereo not shown) [Example 218, 2-[(Benzofuran-2-ylmethyl)-amino]-N-(3,5-bis-trifluoromethyl-benzyl)-3-(1H-indol-3-yl)-propionamide] and `O=C(NCc1ccc(C(F)(F)F)cc1)C(Cc1c[nH]c2ccccc12)NCc1cc2ccccc2o1` (stereo not shown) [Example 283, 2-[(Benzofuran-2-ylmethyl)-amino]-3-(1H-indol-3-yl)-N-(4-trifluoromethyl-benzyl)-propionamide] are within 1.5-fold of each other in IC50: 294 nM for the first, 420 nM for the second.

First: CC(NC(=O)C(Cc1c[nH]c2ccccc12)NCc1cc2ccccc2o1)c1cccc2ccccc12 (stereo not shown) [Example 197, 2-[(Benzofuran-2-ylmethyl)-amino]-3-(1H-indol-3-yl)-N-(1-naphthalen-1-yl-ethyl)-propionamide]
Second: O=C(NCC1CCNCC1)C(Cc1c[nH]c2ccccc12)NCc1cc2ccccc2o1 (stereo not shown) [Example 203, 2-[(Benzofuran-2-ylmethyl)-amino]-3-(1H-indol-3-yl)-N-piperidin-4-ylmethyl-propionamide]
The IC50 of the first is lower: 933 nM for the first, greater than 10000 nM for the second.

Same assay, conditions: Table 4; [125I]Bolton-Hunter substance P displacement, human IM9 cells; read-out: IC50 (nM) hNK1

Going from `CC(NC(=O)C(C)(Cc1c[nH]c2ccccc12)NCc1nc2ccccc2[nH]1)c1ccccc1` (stereo not shown) [compound 316, 2-[(1H-Benzoimidazol-2-ylmethyl)-amino]-3-(1H-indol-3-yl)-2-methyl-N-(1-phenyl-ethyl)-propionamide] to `CC(NC(=O)C(C)(Cc1c[nH]c2ccccc12)NCC=Cc1ccco1)c1ccccc1` (stereo not shown) [compound 322, 2-(3-Furan-2-yl-allylamino)-3-(1H-indol-3-yl)-2-methyl-N-(1-phenyl-ethyl)-propionamide], the IC50 falls from greater than 10000 nM to 91 nM. The second is the more potent here.

Going from “2-[3-(4-Benzyloxy-phenyl)-allylamino]-3-(1H-indol-3-yl)-2-methyl-N-(1-phenyl-ethyl)-propionamide [compound 340]” to `CNS(=O)(=O)c1cc(Cl)ccc1CNC(C)(Cc1c[nH]c2ccccc12)C(=O)NC(C)c1ccccc1` (stereo not shown) [compound 330, 2-(4-Chloro-2-methylsulfamoyl-benzylamino)-3-(1H-indol-3-yl)-2-methyl-N-(1-phenyl-ethyl)-propionamide], the IC50 falls from 4910 nM to 1100 nM (4.5-fold). The second is the more potent here.

Same assay, conditions: Table 5; [125I]Bolton-Hunter substance P displacement, human IM9 cells; read-out: IC50 (nM) hNK1

Going from `CC(NC(=O)C(Cc1c[nH]c2ccccc12)NCc1ccc(N2CCOCC2)cc1Cl)c1ccccc1` (stereo not shown) [compound 368] to `CC(NC(=O)C(Cc1c[nH]c2ccccc12)NCc1ccc(OCc2ccccc2)cc1)c1ccccc1` (stereo not shown) [compound 379], the IC50 falls from 2240 nM to 587 nM (3.8-fold). The second is the more potent here.

Same assay, conditions: human NK1 receptor, IM9 cells, [125I]Bolton-Hunter substance P; read-out: IC50 (nM) hNK1

First: CC(Cc1c[nH]c2ccccc12)(NCc1cc2ccccc2o1)C(=O)NCc1ccc(F)c(F)c1 (stereo not shown) [compound 167, 2-[(Benzofuran-2-ylmethyl)-amino]-N-(3,4-difluoro-benzyl)-3-(1H-indol-3-yl)-2-methyl-propionamide]
Second: CC(Cc1c[nH]c2ccccc12)(NCc1cc2ccccc2o1)C(=O)NCc1cccc(N)c1 (stereo not shown) [compound 178, N-(3-Amino-benzyl)-2-[(benzofuran-2-ylmethyl)-amino]-3-(1H-indol-3-yl)-2-methyl-propionamide]
The IC50 of the first is 47-fold lower: 29 nM for the first, 1370 nM for the second.

Going from `CC(Cc1c[nH]c2ccccc12)(NCc1cc2ccccc2o1)C(=O)NC1(CN2CCCCC2)CCCCC1` (stereo not shown) [compound 89, 2-[(Benzofuran-2-ylmethyl)-amino]-3-(1H-indol-3-yl)-2-methyl-N-(1-piperidin-1-ylmethyl-cyclohexyl)-propionamide] to `CC(Cc1c[nH]c2ccccc12)(NCc1cc2ccccc2o1)C(=O)NCC1CCCCC1O` (stereo not shown) [compound 49, 2-[(Benzofuran-2-ylmethyl)-amino]-N (2-hydroxy-cyclohexylmethyl)-3-(1H-indol-3-yl)-2-methyl-propionamide], the IC50 falls from 6740 nM to 1550 nM (4.3-fold). The second is the more potent here.

Compared with `CC(Cc1c[nH]c2ccccc12)(NCc1cc2ccccc2o1)C(=O)NCc1ccccc1` (stereo not shown) [compound 28, 2-[(Benzofuran-2-ylmethyl)-amino]-N-benzyl-3-(1H-indol-3-yl)-2-methyl-propionamide], `CC(Cc1c[nH]c2ccccc12)(NCc1cc2ccccc2o1)C(=O)NCc1ccccc1Br` (stereo not shown) [compound 65, 2-[(Benzofuran-2-ylmethyl)-amino]-N-(2-bromo-benzyl)-3-(1H-indol-3-yl)-2-methyl-propionamide] is 16-fold higher in IC50: 44 nM for the first, 700 nM for the second.

Going from `CC(NC(=O)C(C)(Cc1c[nH]c2ccccc12)NCc1cc2ccccc2o1)c1ccc(N)cc1` (stereo not shown) [compound 38, N-[1-(4-Amino-phenyl)-ethyl]-2-[(benzofuran-2-ylmethyl)-amino]-3-(1H-indol-3-yl)-2-methyl-propionamide] to `CC(Cc1c[nH]c2ccccc12)(NCc1cc2ccccc2o1)C(=O)NCc1ccc(N)cc1` (stereo not shown) [compound 62, N-(4-Amino-benzyl)-2-[(benzofuran-2-ylmethyl)-amino]-3-(1H-indol-3-yl)-2-methyl-propionamide], the IC50 rises from 141 nM to 837 nM (5.9-fold). The first is the more potent here.

`CC(Cc1c[nH]c2ccccc12)(NCc1cc2ccccc2o1)C(=O)NCCCN1CCCC1=O` (stereo not shown) [compound 91] and `CC(Cc1c[nH]c2ccccc12)(NCc1cc2ccccc2o1)C(=O)NCCN1CCNC1=O` (stereo not shown) [compound 86, 2-[(Benzofuran-2-ylmethyl)-amino]-3-(1H-indol-3-yl)-2-methyl-N-[2-(2-oxo-imidazolidin-1-yl)-ethyl]-propionamide] cannot be ordered by IC50: greater than 10000 nM for the first, greater than 10000 nM for the second.

Compared with `CC(Cc1c[nH]c2ccccc12)(NCc1cc2ccccc2o1)C(=O)NCC1(c2ccco2)CCC1` (stereo not shown) [compound 117, 2-[(Benzofuran-2-ylmethyl)-amino]-N-(1-furan-2-yl-cyclobutylmethyl)-3-(1H-indol-3-yl)-2-methyl-propionamide], `CC(Cc1c[nH]c2ccccc12)(NCc1cc2ccccc2o1)C(=O)NCc1ccc(F)cc1Cl` (stereo not shown) [compound 168] is lower in IC50: greater than 10000 nM for the first, 230 nM for the second. The second is the more potent here.
